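Cultured in 96-well plates, cells were exposed to test compound for 48 hours across five concentrations. GI50 = concentration required for 50% inhibition of growth. The concentration for full growth arrest is given as TGI.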

What all share (experiment): NCI-60 cell line screen, 48 h
Experiment [1] concerns OVCAR-3 ovarian.
Experiment [2] has as its system SF-295 CNS.
The test system of experiment [3] is NCI/ADR-RES ovarian.
Experiment [4] deals with HL-60(TB) leukemia.
The test system of experiment [5] is HCT-15 colon.
Experiment [6] relates to K-562 leukemia.
For experiment [7], the system named is UO-31 renal.
The test system of experiment [8] is ACHN renal.
Experiment [9] has as its system SNB-75 CNS.
Experiment [10] relates to SR leukemia.

Take `CN(C1=NS(=O)(=O)N=C(N(C)c2ccccc2)O1)c1ccccc1`: the TGI turned out to be 51.6 µM in [1]; 57.7 µM in experiment [2]; 70.8 µM in [3]; 33.7 µM in experiment [4]; 39.2 µM in [5]; 50.4 µM in experiment [6]. Also, the TGI in experiment [7] was found to be 37.6 µM; in experiment [8], 31.7 µM; in [9] it was 34.5 µM; in experiment [10], 44.7 µM.
In the case of `COc1c(B(O)O)cccc1-c1nc2c(F)cc3[nH]ncc3c2c2c1CCCC2`, the GI50 in experiment [1] was 2.87 µM; in experiment [2] it was 2.23 µM; in experiment [3], 2.44 µM; in [4], 0.436 µM; in experiment [5], 2.24 µM; in [6] it was 2.14 µM. The GI50 in [7] was 0.405 µM; in [8], 0.845 µM; in experiment [9], 0.0246 µM; in experiment [10], 2.13 µM. Moreover, the TGI in [1] is 19.3 µM; in experiment [2], 12.8 µM; in [3], 22.1 µM; in experiment [4], 11.3 µM; in experiment [5], 27.6 µM; in experiment [6], greater than 100 µM. Besides, the TGI in [7] was 19.4 µM; in [8], 42.8 µM; in experiment [9], 0.498 µM; in experiment [10] it was greater than 88.5 µM.
Turning to `C/C=C1\C(=O)O[C@@H]2C1C[C@@H]1O[C@H]2[C@H](C)CCC/C(C)=C/CC[C@@]1(C)O` (stereo not given in full), the GI50 in experiment [1] is 1.48 µM; in experiment [2], 13.3 µM; in [3], 3.89 µM; in [4] it was 5.55 µM; in experiment [5] it was 5.51 µM; in experiment [6], 9.72 µM. The GI50 in experiment [7] was 3.02 µM; in experiment [8] it was 2.77 µM; in experiment [9], 9.81 µM; in experiment [10] it was 2.41 µM. Moreover, the TGI is 11.9 µM in experiment [1]; 27.6 µM in [2]; 13.4 µM in [3]; greater than 100 µM in experiment [4]; 21.8 µM in [5]; greater than 100 µM in [6]. For the same compound, the TGI in [7] was 10.4 µM; in experiment [8] it was 14.5 µM; in [9] it was 33.4 µM; in experiment [10], greater than 100 µM.
`N#Cc1nn(C2OC(COC(=O)c3ccccc3)C(OC(=O)c3ccccc3)C2OC(=O)c2ccccc2)c2nc[nH]c(=O)c12` (stereo not given): the TGI is greater than 100 µM in experiment [1]; greater than 100 µM in experiment [2]; greater than 100 µM in experiment [3]; 83.4 µM in experiment [4]; greater than 100 µM in experiment [5]; greater than 100 µM in [6]. The TGI in experiment [7] is greater than 100 µM; in experiment [8] it was greater than 100 µM; in experiment [9] it was greater than 100 µM; in experiment [10], 94.4 µM.
Consider `CCC1CCCCN1C(=S)N/N=C(\C)c1ccccn1` (stereo not given), for which the GI50 is less than 0.0133 µM in experiment [1]; 0.0296 µM in experiment [2]; 0.0472 µM in [3]; 0.0429 µM in experiment [4]; 0.0269 µM in experiment [5]; 0.0238 µM in experiment [6]. Besides, the GI50 is 0.134 µM in [7], less than 0.0175 µM in experiment [8], 0.479 µM in [9] and 0.0716 µM in experiment [10]. For the same compound, the TGI is 1.16 µM in experiment [1]; 2.81 µM in experiment [2]; 6.26 µM in experiment [3]; 3.91 µM in experiment [4]; 3.3 µM in experiment [5]; greater than 100 µM in experiment [6]. Moreover, the TGI in experiment [7] is 1.82 µM; in experiment [8], 1.67 µM; in [9], 2.12 µM; in [10] it was greater than 100 µM.
Turning to `O=C1/C(=C/c2ccccc2)CN(CCC(=O)N2C/C(=C\c3ccccc3)C(=O)/C(=C/c3ccccc3)C2)C/C1=C\c1ccccc1`, the GI50 in experiment [1] was 3.07 µM; in [2] it was 14.2 µM; in experiment [3], 12.1 µM; in [4] it was 13.7 µM; in experiment [5], 0.906 µM; in experiment [6] it was 0.494 µM. For the same compound, the GI50 was 7.51 µM in [7], 8.92 µM in [8], 10.7 µM in [9] and 0.295 µM in [10]. Also, the TGI in experiment [1] is 19.2 µM; in experiment [2], 30 µM; in experiment [3] it was greater than 76 µM; in experiment [4], greater than 100 µM; in experiment [5], 45.1 µM; in experiment [6] it was greater than 100 µM. Further, the TGI was 21.7 µM in [7], 30.3 µM in experiment [8], 35.3 µM in experiment [9] and greater than 100 µM in [10].
